Test results taken from patent US11040028B2, “Penicinotam derivative, preparation method and use thereof” (OCEAN UNIVERSITY OF CHINA, priority 2017, dated 2021).
Where two headings read alike, the source gives them in different places.

Experiments:
Assay type in all cases: cell-based
BHK-21 cells = experiment: Anti-fibrosis activity test: inhibition of BHK-21 cell proliferation (CCK-8); conditions: Mesocricetus auratus, BHK-21, 48 h
Method: (§1) BHK-21 cells in exponential growth phase were selected. After the fusion growth reached 85-95%, normal passage method was utilized to digest and collect the cells, followed by cell counting and adjusting the cell density to 2×10^4 cells/mL. The cells were seeded into 96-well plates, 100 μL/well, and were incubated under the condition of 5% CO2 at 37° C.
(§2) The supernatant was removed after the cells had adhered to the wall for 24 hours. The culture solution containing the prepared compounds at different concentrations were added to the wells, 100 μL/well, each concentration in triplicate. The cells were subcultured for 48 hours after administration. Commercially available pirfenidone was employed as the positive control.
(§3) 10 μL of CCK-8 solution ( 1/10 of the volume of the culture solution) was added to each well 48 hours after the administration, and incubated for 2 hours. The absorbance (A) of each well was determined by a microplate reader at 450 nm wavelength. The inhibition rate against cell proliferation for each compound was calculated based on A, wherein inhibition rate against cell proliferation (inhibition ratio, IR)=(1−value of experimental group (Ai)/value of blank control group (Ao))×100% and the IC50 value of each compound was calculated by the data processing software.

[1] = system: human embryonic lung fibroblast IMR-90; experiment: Anti-fibrosis activity test: inhibition of proliferation of human embryonic lung fibroblast IMR-90 (CCK-8)
Method: as §1, §2, §3
(§4) Using the same protocol for the cell experiments, the inhibitory activity of the test compounds against the proliferation of human lung fibroblasts HFL1, human hepatic stellate cells LX-2, human fibrosarcoma cells HT-1080, human dermal fibroblasts CCC-ESF-1, human embryonic lung fibroblast IMR-90, cardiac fibroblast RAT-iCell-C002 was assayed.

[2] = system: human lung fibroblasts HFL1; experiment: Anti-fibrosis activity test: inhibition of proliferation of human lung fibroblasts HFL1 (CCK-8); conditions: Homo sapiens, HFL1, 48 h
Method: as §1, §2, §3, §4

[3] = system: human dermal fibroblasts CCC-ESF-1; experiment: Anti-fibrosis activity test: inhibition of proliferation of human dermal fibroblasts CCC-ESF-1 (CCK-8); conditions: Fibroblast
Method: as §1, §2, §3, §4

[4] = system: human hepatic stellate cells LX-2; experiment: Anti-fibrosis activity test: inhibition of proliferation of human hepatic stellate cells LX-2 (CCK-8); conditions: Homo sapiens, 48 h
Method: as §1, §2, §3, §4

[5] = system: cardiac fibroblast RAT-iCell-C002; experiment: Anti-fibrosis activity test: inhibition of proliferation of cardiac fibroblast RAT-iCell-C002 (CCK-8)
Method: as §1, §2, §3, §4

[6] = system: mouse macrophages (RAW264.7); experiment: Lipopolysaccharide-induced NO secretion in macrophages (Griess); conditions: RAW264.7, LPS 1 μg/ml, a/b isomers given as first/second symbol, read-out: IC50 (μM), inhibition of lipopolysaccharide-induced NO secretion in macrophages
Method: The effects of the compounds of the present application on the lipopolysaccharide-induced NO secretion in macrophage was tested Principle: Anti-inflammatory drug activity screening is to detect the inhibitory effect of compounds on NO production in the mouse macrophages (RAW264.7). When immune cells are stimulated by microbial endotoxin, inflammatory mediators, etc., a large amount of induced NO synthase (iNOS) is produced, and thus NO is generated for immune response. Accordingly, the inhibition of NO production can serve as a direct indicator of the anti-inflammatory activity of the compound. The activity of the compound to inhibit NO production at the cellular level is directly evaluated in the abovementioned test model, thereby reflecting the anti-inflammatory activity of the compound. In this experiment, the content of NO in the medium was detected by Gris kit (Molecular probes, G-7921). Macrophages (Raw264.7) were cultured in DMEM medium containing 10% fetal bovine serum, with the cell concentration adjusted. The cells were seeded in 24-well cell culture plates, cultured in an incubator, and the test samples in different concentrations were added every other day. The blank medium was used as a blank control, and commercially available indomethacin and resveratrol were employed as positive controls. After the addition of lipopolysaccharide (LPS, 1 μg/ml), incubation was performed for 24 hours. Then the supernatant culture solution was taken, to […] reagent was added, and the absorbance value was measured by a microplate reader at 548 nm. Inhibition rate=([…])×100%.

[7] = system: human fibrosarcoma cells HT-1080; experiment: Anti-fibrosis activity test: inhibition of proliferation of human fibrosarcoma cells HT-1080 (CCK-8); conditions: Homo sapiens, HT-1080, 48 h
Method: as §1, §2, §3, §4

[8] = Homo sapiens, IMR-90 cells, 48 h, CCK-8
[9] = Homo sapiens, CCC-ESF-1 cells, 48 h, CCK-8
[10] = Cardiac fibroblast, 48 h, RAT-iCell-C002 cells, CCK-8
[11] = CCK-8, 48 hours after administration
[12] = human embryonic lung fibroblast IMR-90, CCK-8, 48 hours
[13] = human lung fibroblasts HFL1, CCK-8, 48 hours
[14] = human dermal fibroblasts CCC-ESF-1, CCK-8, 48 hours
[15] = human hepatic stellate cells LX-2, CCK-8, 48 hours
[16] = Cardiac fibroblast, 48 h, cardiac fibroblast RAT-iCell-C002, CCK-8, 48 hours
[17] = human fibrosarcoma cells HT-1080, CCK-8, 48 hours
[18] = cardiac fibroblast RAT-iCell-C002, CCK-8, 48 hours

IC50 ([6]; Mus musculus, RAW264.7, 24 h) [µM]	IC50 ([7]; HT-1080 cells, 48 h, CCK-8) [mM]	IC50 [7, 17] [mM]	IC50 ([6]; 24 hours) [µM]	Structure (SMILES)	IC50 (BHK-21 cells; 48 h, CCK-8) [mM]	IC50 [1, 8] [mM]	IC50 ([2]; HFL1 cells, 48 h, CCK-8) [mM]	IC50 [3, 9] [mM]	IC50 ([4]; LX-2, 48 h, LX-2 cells, CCK-8) [mM]	IC50 [5, 10] [mM]	IC50 (BHK-21 cells; [11]) [mM]	IC50 [1, 12] [mM]	IC50 [2, 13] [mM]	IC50 [3, 14] [mM]	IC50 [4, 15] [mM]	IC50 [5, 16] [mM]	IC50 [5, 18] [mM]
1 to 10	0.05 to 5			Cc1cc2nc3c(c(O)c2cc1C)-c1cccn1C3=O [Compound 781b, 11-hydroxy-8,9-dimethyl-5H-pyrrolizino[2,1-b]quinolin-5-one]	0.05 to 5	0.05 to 5	0.05 to 5	0.05 to 5	0.05 to 5	0.05 to 5							
1 to 10	0.05 to 5			Cc1ccc2nc3c(c(O)c2c1)-c1cccn1C3=O [Compound 777b, 11-hydroxy-9-methyl-5H-pyrrolizino[2,1-b]quinolin-5-one]	0.05 to 5	0.05 to 5	0.05 to 5	0.05 to 5	0.05 to 5	0.05 to 5							
1 to 10		0.05 to 5		O=C1c2c(nc3ccc(C(F)(F)F)cc3c2Oc2ccc(Cl)cc2)-c2cccn21 [Compound 276b, 9-(4-chlorophenoxy)-7-(trifluoromethyl)-10H-pyrrolizino[1,2-b]quinolin-10-one]							0.05 to 5	0.05 to 5	0.05 to 5	0.05 to 5	0.05 to 5	0.05 to 5	
			10 to 50	O=C1c2c(nc3c(C(F)(F)F)c(N4CCNCC4)ccc3c2OCc2ccc(Cl)cc2)-c2cccn21 [Compound 487b, 9-((4-chlorobenzyl)oxy)-6-(piperazin-1-yl)-5-(trifluoromethyl)-10H-pyrrolizino[1,2-b]quinolin-10-one]													0.05 to 5
			0.1 to 1	O=C1c2c(n(Cc3ccc(Cl)cc3)c3c(C(F)(F)F)c(N4CCNCC4)ccc3c2=O)-c2cccn21 [Compound 487a, 4-(4-Chlorobenzyl)-6-(piperazin-1-yl)-5-(trifluoromethyl)-9H-pyrrolizino[1,2-b]quinoline-9,10(4H)-dione]													< 0.05
10 to 50				COc1ccc2c(c1)c(CC(=O)O)c(C)n2C(=O)c1ccc(Cl)cc1 [indomethacin, reference compound]													
		0.05 to 5		O=C1c2c(nc3cc(N4CCNCC4)c(F)cc3c2OCc2ccc(Br)cc2)-c2cccn21 [Compound 633b, 9-((4-bromobenzyl)oxy)-7-fluoro-6-(piperazin-1-yl)-10H-pyrrolizino[1,2-b]quinolin-10-one]							0.05 to 5	0.05 to 5	0.05 to 5	0.05 to 5	0.05 to 5	0.05 to 5	
		0.05 to 5		O=C1c2c(n(Cc3ccc(Br)cc3)c3cc(N4CCNCC4)c(F)cc3c2=O)-c2cccn21 [Compound 633a, 4-(4-Bromobenzyl)-7-fluoro-6-(piperazin-1-yl)-9H-pyrrolizino[1,2-b]quinoline-9,10(4H)-dione]							< 0.05	0.05 to 5	0.05 to 5	0.05 to 5	0.05 to 5	0.05 to 5	
		0.05 to 5		N#Cc1ccccc1-c1ccc(COc2c3c(nc4cc(N5CCNCC5)c(F)cc24)-c2cccn2C3=O)cc1 [Compound 638b, 4′-(((7-fluoro-10-oxo-6-(piperazin-1-yl)-10H-pyrrolizino[1,2-b]quinolin-9-yl)oxy)methyl)-[1,1′-biphenyl]-2-carbonitrile]							0.05 to 5	0.05 to 5	0.05 to 5	0.05 to 5	0.05 to 5	0.05 to 5	
		0.05 to 5		O=C1c2c(nc3cccc(Cl)c3c2OCc2ccccc2Cl)-c2cccn21 [Compound 645b, 8-chloro-9-((2-chlorobenzyl)oxy)-10H-pyrrolizino[1,2-b]quinolin-10-one]							0.05 to 5	0.05 to 5	0.05 to 5	0.05 to 5	0.05 to 5	0.05 to 5	
	0.05 to 5			Cc1cc2n(c1)C(=O)c1c-2[nH]c2ccccc2c1=O [Compound 801a, 2-Methyl-9H-pyrrolizino[1,2-b]quinoline-9,10(4H)-dione]	< 0.05	0.05 to 5	0.05 to 5	0.05 to 5	0.05 to 5	0.05 to 5							

The next lines start with the compound.

Structure (SMILES)	IC50 ([6]; Mus musculus, RAW264.7, 24 h) [µM]	IC50 ([7]; HT-1080 cells, 48 h, CCK-8) [mM]	IC50 [7, 17] [mM]	IC50 ([6]; 24 hours) [µM]	IC50 (BHK-21 cells; 48 h, CCK-8) [mM]	IC50 [1, 8] [mM]	IC50 ([2]; HFL1 cells, 48 h, CCK-8) [mM]	IC50 [3, 9] [mM]	IC50 ([4]; LX-2, 48 h, LX-2 cells, CCK-8) [mM]	IC50 [5, 10] [mM]	IC50 (BHK-21 cells; [11]) [mM]	IC50 [1, 12] [mM]	IC50 [2, 13] [mM]	IC50 [3, 14] [mM]	IC50 [4, 15] [mM]	IC50 [5, 16] [mM]	IC50 [5, 18] [mM]
N#Cc1ccc2nc3c(c(Oc4ccc(F)cc4)c2c1)C(=O)n1cccc1-3 [Compound 199b, 9-(4-fluorophenoxy)-10-oxo-10H-pyrrolizino[1,2-b]quinoline-7-carbonitrile]	1 to 10		0.05 to 5								0.05 to 5	0.05 to 5	0.05 to 5	0.05 to 5	0.05 to 5	0.05 to 5	
O=C1c2nc3ccccc3c(OCCCCN3CCCCC3)c2-c2cccn21 [Compound 788b, 11-(4-(piperidin-1-yl)butoxy)-5H-pyrrolizino[2,1-b]quinolin-5-one]	1 to 10	0.05 to 5			0.05 to 5	0.05 to 5	0.05 to 5	0.05 to 5	0.05 to 5	0.05 to 5							
O=C1c2c(nc3cc(N4CCNCC4)c(C(F)(F)F)cc3c2O)-c2cccn21 [Compound 397b, 9-hydroxy-6-(piperazin-1-yl)-7-(trifluoromethyl)-10H-pyrrolizino[1,2-b]quinolin-10-one]	0.1 to 1		0.05 to 5								0.05 to 5	0.05 to 5	0.05 to 5	0.05 to 5	0.05 to 5	0.05 to 5	
Oc1ccc(C=Cc2cc(O)cc(O)c2)cc1 [resveratrol, reference compound]	1 to 10																
Cc1ccc2n1C(=O)c1c-2nc2ccccc2c1O [Compound 800b, 9-hydroxy-1-methyl-10H-pyrrolizino[1,2-b]quinolin-10-one]		0.05 to 5			0.05 to 5	0.05 to 5	0.05 to 5	0.05 to 5	0.05 to 5	0.05 to 5							
N#Cc1cc2c(OCc3ccc(Cl)cc3)c3c(nc2cc1N1CCNCC1)-c1cccn1C3=O [Compound 640b, 9-((4-chlorobenzyl)oxy)-10-oxo-6-(piperazin-1-yl)-10H-pyrrolizino[1,2-b]quinoline-7-carbonitrile]			0.05 to 5								0.05 to 5	0.05 to 5	0.05 to 5	0.05 to 5	0.05 to 5	0.05 to 5	
O=C1c2c(nc3cc(N4CCNCC4)c(F)cc3c2OCc2ccc(-c3ccccc3)cc2)-c2cccn21 [Compound 637b, 9-([1,1′-biphenyl]-4-ylmethoxy)-7-fluoro-6-(piperazin-1-yl)-10H-pyrrolizino[1,2-b]quinolin-10-one]			5 to 20								0.05 to 5	0.05 to 5	0.05 to 5	0.05 to 5	0.05 to 5	0.05 to 5	
